Activity calls are given as the source filed them. The rule behind the calls is not given here.
Experiments:
[1] = molecular target: T1, von Hippel-Lindau disease tumor suppressor/Son of sevenless homolog 1 (Homo sapiens) (UniProt Q07889+P40337); assay: PROTAC activity at VHL/SOS1 in human NCI-H358 cells harboring KRAS G12C mutant assessed as induction of SOS1 degradation upto 10 uM incubated for 24 hrs by immunoblotting analysis; type: cell-based
ASPC1 [2] = assay: Antiproliferative activity against human ASPC1 cells harboring KRAS G12D mutant assessed as inhibition of cell proliferation incubated for 7 days by CellTiterGlo-3D proliferation assay; type: functional, cell-based; details: ASPC1, 168 h
MIA PaCa-2 = assay: Antiproliferative activity against human MIA PaCa-2 cells harboring KRAS G12C mutant assessed as inhibition of cell proliferation incubated for 7 days by CellTiterGlo-3D proliferation assay; type: functional, cell-based; details: MIA PaCa-2, 168 h
A549 = assay: Antiproliferative activity against human A549 cells harboring KRAS G12S mutant assessed as inhibition of cell proliferation incubated for 7 days by CellTiterGlo-3D proliferation assay; type: functional, cell-based; details: A549, 168 h
PANC-1 = assay: Antiproliferative activity against human PANC-1 cells harboring KRAS G12D mutant assessed as inhibition of cell proliferation incubated for 7 days by CellTiterGlo-3D proliferation assay; type: functional, cell-based; details: PANC-1, 168 h
SW-620 [3] = assay: Antiproliferative activity against human SW620 cells harboring KRAS G12V mutant assessed as inhibition of cell proliferation incubated for 7 days by CellTiterGlo-3D proliferation assay; type: functional, cell-based; details: SW-620, 168 h
LoVo = assay: Antiproliferative activity against human LoVo cells harboring KRAS G13D mutant assessed as inhibition of cell proliferation incubated for 7 days by CellTiterGlo-3D proliferation assay; type: functional, cell-based; details: 168 h
NCI-H358 = assay: Antiproliferative activity against human NCI-H358 cells harboring KRAS G12C mutant assessed as inhibition of cell proliferation incubated for 7 days by CellTiterGlo-3D proliferation assay; type: functional, cell-based; details: NCI-H358, 168 h
[4] = molecular target: T1, von Hippel-Lindau disease tumor suppressor/Son of sevenless homolog 1 (Homo sapiens); assay: PROTAC activity at VHL/SOS1 in human ASPC1 cells harboring KRAS G12D mutant assessed as induction of SOS1 degradation upto 10 uM incubated for 24 hrs by immunoblotting analysis; type: cell-based
ASPC1 [5] = assay: In vivo Inhibition of ERK in human ASPC1 cells harboring KRAS G12D mutant xenografted BALB/c nude mouse assessed as inhibition of ERK phosphorylation in tumor at 50 mg/kg, ip administered twice daily for 3 weeks by immunohistochemical analysis; type: functional, organism-based
ASPC1 [6] = assay: In vivo Inhibition of ERK in human ASPC1 cells harboring KRAS G12D mutant xenografted BALB/c nude mouse assessed as inhibition of ERK phosphorylation at 50 mg/kg, ip administered twice daily for 3 weeks by Immunoblot analysis; type: functional, organism-based
[7] = Toxicity in BALB/c nude mouse xenografted with human ASPC1 cells harboring KRAS G12D mutant assessed as body weight loss at 50 mg/kg, ip administered twice daily for 3 weeks; type: organism-based; details: in vivo, 504 h
SW-620 [8] = assay: Antitumor activity against human SW620 cells harboring KRAS G12V mutant xenografted in BALB/c nude mouse assessed as tumor growth inhibition at 50 mg/kg, ip administered twice daily for 2 weeks relative to control; type: functional; details: SW-620, 336 h, read-out: TGI
SW-620 [9] = assay: In vivo Inhibition of ERK in human SW620 cells harboring KRAS G12V mutant xenografted BALB/c nude mouse assessed as inhibition of ERK phosphorylation at 50 mg/kg, ip administered twice daily for 2 weeks by Immunoblot analysis; type: functional, organism-based
SW-620 [10] = assay: In vivo Inhibition of ERK in human SW620 cells harboring KRAS G12V mutant xenografted BALB/c nude mouse assessed as inhibition of ERK phosphorylation in tumor at 50 mg/kg, ip administered twice daily for 2 weeks by immunohistochemistry analysis; type: functional, organism-based
ASPC1 [11] = assay: Antitumor activity against human ASPC1 cells harboring KRAS G12D mutant xenografted in BALB/c nude mouse assessed as tumor growth inhibition at 50 mg/kg, ip administered twice daily for 3 weeks relative to control; type: functional; details: ASPC1, 504 h, read-out: TGI
[12] = Toxicity in BALB/c nude mouse xenografted with human SW620 cells harboring KRAS G12V mutant assessed as body weight loss at 50 mg/kg, ip administered twice daily for 2 weeks; type: organism-based, SW-620; details: in vivo, 336 h

T1 sequence (P40337 whole entry, looked up): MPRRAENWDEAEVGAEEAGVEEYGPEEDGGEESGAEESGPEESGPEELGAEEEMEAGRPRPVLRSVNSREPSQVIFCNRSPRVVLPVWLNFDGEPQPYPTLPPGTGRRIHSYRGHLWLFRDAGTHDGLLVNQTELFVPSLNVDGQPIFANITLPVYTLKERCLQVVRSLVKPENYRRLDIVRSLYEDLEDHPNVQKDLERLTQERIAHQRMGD
T1 sequence (Q07889 whole entry, looked up): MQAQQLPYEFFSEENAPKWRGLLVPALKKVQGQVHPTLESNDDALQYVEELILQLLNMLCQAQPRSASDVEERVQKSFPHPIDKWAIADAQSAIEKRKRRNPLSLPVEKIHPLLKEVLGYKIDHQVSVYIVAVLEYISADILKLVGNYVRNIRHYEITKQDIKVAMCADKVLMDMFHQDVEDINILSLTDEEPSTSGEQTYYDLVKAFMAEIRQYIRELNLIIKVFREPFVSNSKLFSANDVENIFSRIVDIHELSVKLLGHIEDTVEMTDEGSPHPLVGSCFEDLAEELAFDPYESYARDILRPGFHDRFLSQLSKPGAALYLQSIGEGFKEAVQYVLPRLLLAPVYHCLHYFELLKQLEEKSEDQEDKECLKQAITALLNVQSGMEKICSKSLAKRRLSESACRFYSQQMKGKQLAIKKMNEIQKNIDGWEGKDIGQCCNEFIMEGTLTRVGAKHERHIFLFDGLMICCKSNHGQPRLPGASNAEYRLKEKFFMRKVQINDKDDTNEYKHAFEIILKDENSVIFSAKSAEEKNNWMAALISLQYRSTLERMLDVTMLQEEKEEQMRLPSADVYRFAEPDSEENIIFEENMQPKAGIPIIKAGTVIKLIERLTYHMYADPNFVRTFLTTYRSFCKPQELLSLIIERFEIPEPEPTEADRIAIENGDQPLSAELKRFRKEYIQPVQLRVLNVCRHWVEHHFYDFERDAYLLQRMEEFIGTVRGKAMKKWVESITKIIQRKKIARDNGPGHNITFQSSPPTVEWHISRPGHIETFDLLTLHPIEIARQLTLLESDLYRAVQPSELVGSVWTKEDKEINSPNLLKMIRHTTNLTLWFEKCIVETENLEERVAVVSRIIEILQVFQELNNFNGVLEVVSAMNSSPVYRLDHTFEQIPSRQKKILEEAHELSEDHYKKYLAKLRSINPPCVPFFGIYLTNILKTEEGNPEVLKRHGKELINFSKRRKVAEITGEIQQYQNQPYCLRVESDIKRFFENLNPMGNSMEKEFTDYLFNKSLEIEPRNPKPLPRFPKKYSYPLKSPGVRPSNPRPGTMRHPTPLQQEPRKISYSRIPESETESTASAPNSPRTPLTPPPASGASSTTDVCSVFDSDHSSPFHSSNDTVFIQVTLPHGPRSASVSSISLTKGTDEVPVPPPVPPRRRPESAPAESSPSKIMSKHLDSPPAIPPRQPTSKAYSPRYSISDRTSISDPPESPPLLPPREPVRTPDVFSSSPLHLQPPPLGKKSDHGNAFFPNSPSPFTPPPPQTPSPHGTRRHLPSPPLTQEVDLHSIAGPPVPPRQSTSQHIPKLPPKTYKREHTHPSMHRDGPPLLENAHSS

With `COc1cc2nc(C)nc(N[C@H](C)c3cc(N)cc(C(F)(F)F)c3)c2cc1C1CCN(C(=O)CCCCCC(=O)N[C@H](C(=O)N2C[C@@H](O)C[C@H]2C(=O)N[C@@H](C)c2ccc(-c3scnc3C)cc2)C(C)(C)C)CC1` the Activity [1] was “inactive”, the IC50 (ASPC1 [2]) was 302 nM and the IC50 (MIA PaCa-2) was 957 nM. For the same molecule, the IC50 (A549) was 731 nM, the IC50 (PANC-1) was 188 nM and the IC50 (SW-620 [3]) was 303 nM. The IC50 (LoVo) was over 1000 nM, the IC50 (NCI-H358) was 457 nM and the Activity [4] was “inactive”.
For `COc1cc2nc(C)nc(N[C@H](C)c3cc(N)cc(C(F)(F)F)c3)c2cc1O[C@H]1CCOC1`, the inhibition (ASPC1 [5]) was “Active”, the IC50 (ASPC1 [2]) was 64.4 nM and the inhibition (ASPC1 [6]) was “Active”. The IC50 (MIA PaCa-2) was 24.8 nM, the Activity [7] was “Non-Toxic” and the inhibition in vivo at 50 mg/kg (SW-620 [8]) was 61.4%. The IC50 (A549) was 263 nM, the inhibition (SW-620 [9]) was “Active” and the IC50 (PANC-1) was 17.8 nM. For the same molecule, the inhibition (SW-620 [10]) was “Active”, the IC50 (SW-620 [3]) was 30.1 nM and the IC50 (LoVo) was 142 nM. The IC50 (NCI-H358) was 16.5 nM, the inhibition in vivo at 50 mg/kg (ASPC1 [11]) was 43.6% and the Activity [12] was “Non-Toxic”.

Reference: ChEMBL document CHEMBL5247656, “Discovery of a Potent, Cooperative, and Selective SOS1 PROTAC ZZ151 with In Vivo Antitumor Efficacy in KRAS-Mutant Cancers” (J Med Chem, 2023)
